Reference: ChEMBL document CHEMBL2074366, “Secretion of sparfloxacin from the human intestinal Caco-2 cell line is altered by P-glycoprotein inhibitors” (Antimicrob Agents Chemother, 1998)

Target: ATP-dependent translocase ABCB1 (Homo sapiens, UniProt P08183)
Experiment: TP_TRANSPORTER: transepithelial transport (basal to apical) in Caco-2 cells
Assay type: functional, cell-based

ATP-dependent translocase ABCB1, sequence (P08183 whole entry): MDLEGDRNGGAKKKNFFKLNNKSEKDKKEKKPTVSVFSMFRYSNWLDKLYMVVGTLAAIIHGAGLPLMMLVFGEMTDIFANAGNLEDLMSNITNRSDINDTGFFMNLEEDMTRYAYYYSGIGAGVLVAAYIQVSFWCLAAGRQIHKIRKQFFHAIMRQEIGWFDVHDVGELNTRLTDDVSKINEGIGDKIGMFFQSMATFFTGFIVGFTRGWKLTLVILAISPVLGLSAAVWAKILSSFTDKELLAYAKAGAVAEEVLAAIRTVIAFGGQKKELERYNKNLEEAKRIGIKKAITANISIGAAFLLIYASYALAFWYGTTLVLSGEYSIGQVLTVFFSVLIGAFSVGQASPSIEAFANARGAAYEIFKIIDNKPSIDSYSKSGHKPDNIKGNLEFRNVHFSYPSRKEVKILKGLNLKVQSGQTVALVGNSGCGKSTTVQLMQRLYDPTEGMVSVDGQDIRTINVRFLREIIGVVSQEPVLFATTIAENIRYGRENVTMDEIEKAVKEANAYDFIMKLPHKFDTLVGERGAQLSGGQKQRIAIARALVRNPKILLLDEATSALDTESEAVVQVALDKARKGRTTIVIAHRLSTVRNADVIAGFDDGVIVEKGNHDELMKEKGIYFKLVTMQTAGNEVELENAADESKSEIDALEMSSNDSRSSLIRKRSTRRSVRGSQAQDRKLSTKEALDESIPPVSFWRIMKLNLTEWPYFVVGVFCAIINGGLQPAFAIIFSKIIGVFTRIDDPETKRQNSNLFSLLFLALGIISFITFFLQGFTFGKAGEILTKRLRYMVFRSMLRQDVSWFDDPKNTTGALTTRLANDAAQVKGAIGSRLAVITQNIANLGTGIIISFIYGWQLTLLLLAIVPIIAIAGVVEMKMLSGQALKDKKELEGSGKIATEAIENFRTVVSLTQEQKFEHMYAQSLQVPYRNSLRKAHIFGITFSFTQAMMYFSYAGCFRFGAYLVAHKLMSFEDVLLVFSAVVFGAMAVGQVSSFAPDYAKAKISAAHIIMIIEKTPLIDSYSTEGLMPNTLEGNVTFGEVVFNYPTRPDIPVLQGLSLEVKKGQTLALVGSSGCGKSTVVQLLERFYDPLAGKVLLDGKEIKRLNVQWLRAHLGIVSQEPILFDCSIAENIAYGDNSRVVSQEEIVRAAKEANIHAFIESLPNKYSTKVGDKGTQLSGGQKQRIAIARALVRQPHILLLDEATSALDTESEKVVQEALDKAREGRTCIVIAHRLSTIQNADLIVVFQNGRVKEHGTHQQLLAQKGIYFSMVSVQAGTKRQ

Activity: substrate [+]
Structure (SMILES): C[C@@H]1CN(c2c(F)c(N)c3c(=O)c(C(=O)O)cn(C4CC4)c3c2F)C[C@H](C)N1 [SPARFLOXACIN]
